Measurements taken from patent US11091460B2, “Syk inhibitor and use method therefor” (CHIA TAI TIANQING PHARMACEUTICAL GROUP CO., LTD., priority 2017, dated 2021).
Where two headings read alike, the source gives them in different places.

Tests used:
[1] = target: T1, SYK kinase (Homo sapiens, UniProt P43405); test: In vitro test of the inhibition effect on SYK kinase (HTRF); assay type: biochemical; conditions: tyrosine kinase 0.0156 ng/μL, substrate 0.2 uM, ATP 2 uM, 23° C. 1 hour, read-out: Inhibit SYK kinase IC50
T1 construct: purchased Invitrogen PV3857
Protocol: Experimental Example 1: In Vitro Test of the Inhibition Effect of the Example Compounds on SYK Kinase
Adenosine triphosphate concentration was controlled at 2 uM. • 4) Loaded with a Multidrop automatic dispenser, and a mixture of tyrosinase solution and tyrosine kinase-substrate-biotin/adenosine triphosphate was added in an amount of 5 ul per well, and incubated at 23° C. for 1 hour. • c) Detection phase: • 1) Added 13.33 mL of ethylenediaminetetraacetic acid solution to the Detection Buffer in the kit, added the specified amount of […] (Eu)-labeled antibody and streptavidin XL-665, and prepared the detection solution. • 2) Loaded with a Multidrop automatic dispenser, and 10 uL of the detection solution per well, incubated at 23° C. for 1 hour. It terminated the reaction of the enzyme and substrate mixture. • 3) Reading after centrifugation on a multi-function microplate reader, • d) Data Analysis: Analyzed the data with XL-Fit, and calculated the IC50 value of the compound.

[2] = test system: AKT phosphorylation; test: In vitro test of the inhibition effect on AKT phosphorylation (ELISA, Ramos cells); assay type: cell-based; conditions: Homo sapiens, Ramos
Protocol: Experimental Example 2: In Vitro Test of the Inhibition Effect of the Example Compounds on AKT Phosphorylation
• 2.1 Experimental Purpose: Intracellular protein kinase AKT phosphorylation detected by experiment was measured by enzyme-linked immunosorbent assay (ELISA), and the inhibition of the compound on protein kinase AKT phosphorylation was evaluated by an index of the half-cell inhibition concentration (IC50) value of the compound. • 2.2 Experimental Materials: • Cell line: Ramos cell line • Cell culture medium (RPMI1640, Invitrogen #22400-105; 10% serum Gibco #10099-141; L-glutamine 1×, Gibco #25030-081) • Experimental medium (without serum, RPM11640, Invitrogen #22400-105; L-glutamine 1×, Gibco #25030) • Lysis buffer (trishydroxymethylaminomethane hydrochloride, Invitrogen15567-1000 ml; sodium chloride, domestic; sodium deoxycholate, Sigma30970-25 G; polyethylene glycol octylphenyl ether, SigmaT9284-100 ml; dodecane sodium sulfonate, SigmaL3771; ethylenediaminetetraacetic acid, Invitrogen15575-038-100 ml; ultrapure water, MilliQ) • Protease inhibitor (Roche, 4693159001-30/BOX) • Phosphatase inhibitor mixture 2 (Sigma, P5726-5 ML) • Phosphatase inhibitor mixture 3 (Sigma, P0044-5 ML) • Goat Anti-Human immunoglobulin M (F(ab′)2 Goat Anti-Human IgM) (Jackson Immuno Research-109-006-129) • Phosphorylated AKT assay kit (Phospho-AKT 1/2/3 (ser473)) (TGR Bioscience, EKT002) • 10× Hank's balanced salt solution (Gibco #14065-056) • 96-well cell plate (Greiner #655090) • Compound V-well dilution plate (Axygen #WITP02280) • CO2 incubator (Thermo #371) • Centrifuge (Eppendorf #581 OR) • Vi-cell cell counter (Beckman Coulter) • Pipette (Eppendorf) • Pipette (Greiner) • Pipetting gun (Eppendorf) • Multi-purpose microplate reader (Envision Reader) • 2.3 Experimental procedures and methods: • a) Cell Seeding (Ramos Cells) • 1) The medium was preheated in a 37° C. water bath. Suspended cells and their culture solution were aspirated, centrifuged at 1000 rpm for 5 minutes. • 2) Aspirated the cell culture medium, added 10 mL of pre-warmed medium to the centrifuge tube, blew off the resuspended cells, pipette 1 mL of the cell suspension, and counted with Vi-cell; • 3) The Ramos cells were diluted with a medium to a density of 5×10^6/mL, and the diluted cells were added to a 96-well cell culture plate (100 μL/well) using a lance. Placed the cell plates in a 37° C., 5% CO2 incubator for overnight. • b) Cell starvation: • 1) After cultured the inoculation cells for overnight, centrifuged at 1000 rpm for 5 minutes on the next day, aspirated the original medium by a lance, added serum-free experimental medium, placed the cell plates in a 37° C., 5% CO2 incubator, and starved for overnight. • c) Compound preparation and dosing: • 1) The compound was diluted with dimethyl sulfoxide to give an initial concentration of 5 mM. A triple gradient dilution was done with compound V dilution plate to make 10 concentration points. • 2) Took another new compound V-well dilution plate, added 198 ul of serum-free experimental medium to each well, and then added 2 ul of the diluted compound above to each well, and mixed with a lance. […]

[3] = Ramos cell line, compound 1 hour, goat anti-human IgM 10 ug/ml for 10 minutes, Phospho-AKT 1/2/3 (ser473) ELISA, read-out: Inhibit AKT phosphorylation IC50
[4] = read-out: Inhibit AKT phosphorylation IC50 (nM)

| Structure (SMILES) | IC50 [1] | IC50 [2, 3] | IC50 [2, 4] |
| --- | --- | --- | --- |
| Cn1c(=O)c(Nc2ccc(N3CCOCC3)cc2)nc2ccc(-c3c[nH]cn3)cc21 [Example 31, 7-(1H-imidazol-4-yl)-1-methyl-3-((4-morpholinephenyl)amino)quinoxaline-2(1H)-one] | 81 nM | 132 nM |  |
| CN1CCN(c2ccc(Nc3nc4ccc(-c5cn[nH]c5)cc4n(C)c3=O)cc2)CC1 [Example 33, 1-Methyl-3((4-(4-methylpiperazin-1-yl)phenyl)amino)-7-(1H-pyrazol-4-yl) quinoxaline-2(1H)-one] | 3.2 nM |  | 226 nM |
| Cn1c(=O)c(Nc2ccc(N3CCS(=O)(=O)CC3)cc2)nc2ccc(-c3cn[nH]c3)cc21 [Example 35, 3-((4-(1,1-Dioxothiomorpholine)phenyl)amino)-1-methyl-7-(1H-pyrazol-4-yl)quinoxaline-2(1H)-one] | 5.1 nM | 52.2 nM |  |
| CN1CCCN(c2ccc(Nc3nc4ccc(-c5cn[nH]c5)cc4n(C)c3=O)cc2)CC1 [Example 37, 1-Methyl-3-((4-(4-methyl-1,4-diazepan-1-yl)phenyl)amino)-7-(1H-pyrazol-4-yl)quinoxaline-2(1H)-one] | 10.1 nM | 261 nM |  |
| Cn1c(=O)c(Nc2ccc(S(=O)(=O)N3CCCCC3)cc2)nc2ccc(-c3cn[nH]c3)cc21 [Example 38, 1-Methyl-3-((4-(piperidin-1-ylsulfonyl)phenyl)amino)-7-(1H-pyrazol-4-yl)quinoxaline-2(1H)-one] | 40 nM | 343 nM |  |
| Cn1c(=O)c(Nc2ccc(N3CCNCC3)cc2)nc2ccc(-c3cn[nH]c3)cc21 [Example 39, 1-Methyl-3-((4-(piperazin-1-yl)phenyl)amino)-7-(1H-pyrazol-4-yl)quinoxaline-2(1H)-one] | 3.6 nM | 60.1 nM |  |
| Cn1c(=O)c(Nc2ccc(N3CCOCC3)cc2)nc2c(Cl)cc(-c3cn[nH]c3)cc21 [Example 41, 5-Chloro-1-methyl-3-((4-morpholinephenyl)amino)-7-(1H-pyrazol-4-yl)quinoxaline-2(1H)-one] | 4.8 nM | 98.8 nM |  |
| Cn1c(=O)c(Nc2ccc(N3CCOCC3)cc2)nc2c(F)cc(-c3cn[nH]c3)cc21 [Example 44] | 4.4 nM | 97 nM |  |
| Cn1c(=O)c(Nc2ccc(N3CCOCC3)cc2)nc2cc(F)c(-c3cn[nH]c3)cc21 [Example 45, 6-Fluoro-1-methyl-3-((4-morpholinephenyl)amino)-7-(1H-pyrazol-4-yl)quinoxaline-2(1H)-one] | 20.2 nM | 83.3 nM |  |
| Cn1c(=O)c(Nc2ccc(N3CCOCC3)cc2)nc2ccc(-c3cn[nH]c3)c(F)c21 [Example 46, 8-Fluoro-1-methyl-3-((4-morpholinephenyl)amino)-7-(1H-pyrazol-4-yl)quinoxaline-2(1H)-one] | 9.5 nM | 114 nM |  |
| Cn1c(=O)c(Nc2ccc(N3CCOCC3)c(F)c2)nc2ccc(-c3cn[nH]c3)cc21 [Example 48, 3-((3-Fluoro-4-morpholinephenyl)amino)-1-methyl-7-(1H-pyrazol-4-yl)quinoxaline-2(1H)-one] | 10.5 nM | 114 nM |  |
| Cn1c(=O)c(Nc2ccc(N3C4CCC3CNC4)cc2)nc2ccc(-c3cn[nH]c3)cc21 [Example 54, 3-[4-(3,8-Diazabicyclo[3.2.1]octane-8-yl)aniline]-1-methyl-7-(1H-pyrazol-4-yl)quinoxaline-2(1H)-one] | 5 nM | 69 nM |  |
| Cn1c(=O)c(Nc2ccc(N3CCCC(C(=O)O)C3)cc2)nc2ccc(-c3cn[nH]c3)cc21 (stereo not shown) [Example 55, 1-(4-((4-methyl-3-oxo-6-(1H-pyrazol-4-yl)-3,4-dihydroquinoxalin-2-yl)amino)phenyl)piperidine-3-carboxylic acid] | 4.1 nM |  | 116 nM |
| Cn1c(=O)c(Nc2ccc(N3CCOCC3)cc2)nc2ccc(-c3csc(N)n3)cc21 [Example 59, 7-(2-Aminothiazol-4-yl)-1-methyl-3-((4-morpholinephenyl)amino)quinoxaline-2(1H)-one] | 46 nM | 248 nM |  |
